{"source": "paper PMC12133982", "about": "“Predominant T-cell epitopes of SARS-CoV-2 restricted by multiple prevalent HLA-B and HLA-C allotypes in Northeast Asia” (Frontiers in Immunology, 2025)", "key": {"HLA-C0102": {"target": "HLA-C0102 (Homo sapiens, UniProt P10321, A176E/A330V/A35S/A97T/C350S/D114A/D33F/L171W/L180R/L218V/M285V/M309V/M331V/P208H/Q277E/Q291P/R121W/R243W/R30K/S123C/S140Y/S297R/T329A/T363A/V272M/V319A)", "test": "Competitive peptide binding assay, CIR-C0102", "conditions": "HMy2.CIR-C0102 cells, reference Cy5-[…], class from inhibition at 5 and 15 μM, flow cytometry MFI; read-out: Binding affinity with HLA-C0102", "procedure": "(§1) Then, competitive peptide binding assays were performed."}, "HLA-C0702": {"target": "HLA-C0702 (Homo sapiens, UniProt P10321)", "test": "Competitive peptide binding assay, CIR-C0702"}, "HLA-C0302": {"target": "HLA-C0302 (Homo sapiens, UniProt P10321, A176E/A330V/A97T/C25G/C350S/D114A/D33Y/E197K/L127V/L171W/L218V/M285V/M309V/M331V/P208H/Q277E/Q291P/R243W/R45H/S123Y/S297R/S48A/T118I/T187L/T329A/T363A/V319A)", "test": "Competitive peptide binding assay, CIR-C0302", "conditions": "HMy2.CIR-C0302 cells, reference Cy5-[…], class from inhibition at 5 and 15 μM, flow cytometry MFI; read-out: Binding affinity with HLA-C0302", "procedure": "as §1"}, "HLA-C0304": {"target": "HLA-C0304 (Homo sapiens, UniProt P10321, A176E/A330V/A97T/C25G/C350S/D114A/D33Y/E197K/L119I/L127V/L171W/L218V/M285V/M309V/M331V/P208H/Q277E/Q291P/R243W/R45H/S123Y/S140Y/S297R/S48A/T118I/T187L/T329A/T363A/V319A)", "test": "Competitive peptide binding assay, CIR-C0304", "conditions": "HMy2.CIR-C0304 cells, reference Cy5-[…], class from inhibition at 5 and 15 μM, flow cytometry MFI; read-out: Binding affinity with HLA-C0304", "procedure": "as §1"}, "HLA-C1202": {"target": "HLA-C1202 (Homo sapiens, UniProt P10321, A176E/A330V/C350S/D114A/D33Y/L171W/L180W/L218V/M285V/M309V/M331V/P208H/Q277E/Q291P/S123Y/S297R/S48A/T329A/T363A/V319A/V328M)", "test": "Competitive peptide binding assay, CIR-C1202", "conditions": "HMy2.CIR-C1202 cells, reference Cy5-[…], class from inhibition at 5 and 15 μM, flow cytometry MFI; read-out: Binding affinity with HLA-C1202", "procedure": "as §1"}, "HLA-C0602": {"target": "HLA-C0602 (Homo sapiens, UniProt P10321, A176E/A330V/C350S/L171W/L180W/L218V/M285V/M309V/M331V/N104K/P208H/Q277E/Q291P/R121W/S101N/S123Y/S297R/T329A/T363A/V319A/V328M)", "test": "Competitive peptide binding assay, CIR-C0602"}, "HLA-C0801": {"target": "HLA-C0801 (Homo sapiens, UniProt P10321, A176T/A330V/A97T/C350S/D114A/D138N/D33Y/E201K/E299G/L171W/L218V/M285V/M309V/M331V/P208H/Q277E/Q291P/R59Q/S123Y/S140F/S297R/S48A/T329A/T363A/V319A/V328M)", "test": "Competitive peptide binding assay, CIR-C0801", "conditions": "HMy2.CIR-C0801 cells, reference Cy5-[…], class from inhibition at 5 and 15 μM, flow cytometry MFI; read-out: Binding affinity with HLA-C0801", "procedure": "as §1"}, "HLA-C0303": {"target": "HLA-C0303 (Homo sapiens, UniProt P10321, A176E/A330V/A97T/C25G/C350S/D114A/D33Y/E197K/G115R/L119I/L127V/L171W/L218V/M285V/M309V/M331V/P208H/Q277E/Q291P/R243W/R45H/S123Y/S140Y/S297R/S48A/T118I/T187L/T329A/T363A/V319A)", "test": "Competitive peptide binding assay, CIR-C0303", "conditions": "HMy2.CIR-C0303 cells, reference Cy5-[…], class from inhibition at 5 and 15 μM, flow cytometry MFI; read-out: Binding affinity with HLA-C0303", "procedure": "as §1"}, "HLA-C0701": {"target": "HLA-C0701 (Homo sapiens, UniProt P10321, K90N/S123Y)", "test": "Competitive peptide binding assay, CIR-C0701", "conditions": "HMy2.CIR-C0701 cells, reference Cy5-[…], class from inhibition at 5 and 15 μM, flow cytometry MFI; read-out: Binding affinity with HLA-C 0701", "procedure": "as §1"}, "HLA-C0401": {"target": "HLA-C0401 (Homo sapiens, UniProt P10321, A176E/A330V/A35S/A73E/C25G/C350S/D138N/D33S/E299K/L171W/L180R/L218V/M285V/M309V/M331V/N104K/P208H/Q277E/Q291P/R243W/R38W/S101N/S123F/S140F/S297R/S48A/T329A/T363A/V319A/V327M)", "test": "Competitive peptide binding assay, CIR-C0401", "conditions": "HMy2.CIR-C0401 cells, reference Cy5-[…], class from inhibition at 5 and 15 μM, flow cytometry MFI; read-out: Binding affinity with HLA-C0401", "procedure": "as §1"}}, "note": "Peptide text beside a SMILES is read from it.", "data": [{"smiles": "CC(C)C[C@H](NC(=O)[C@H](Cc1ccccc1)NC(=O)[C@@H](NC(=O)[C@@H](N)C(C)C)C(C)C)C(=O)N[C@@H](Cc1c[nH]cn1)C(=O)N[C@H](C(=O)N[C@H](C(=O)N[C@@H](Cc1ccc(O)cc1)C(=O)N[C@H](C(=O)O)C(C)C)[C@@H](C)O)C(C)C", "note": "[Epitope M131] (H-VVFLHVTYV-OH; N-terminus and C-terminus assumed)", "values": [{"measurement": "IC50", "setting": "HLA-C0102", "value": "5 to 15", "unit": "µM"}, {"measurement": "IC50", "setting": "HLA-C0702", "value": "> 15", "unit": "µM"}, {"measurement": "IC50", "setting": "HLA-C0302", "value": "> 15", "unit": "µM"}, {"measurement": "IC50", "setting": "HLA-C0304", "value": "5 to 15", "unit": "µM"}, {"measurement": "IC50", "setting": "HLA-C1202", "value": "> 15", "unit": "µM"}]}, {"smiles": "CC[C@H](C)[C@H](NC(=O)[C@H](C)NC(=O)[C@H](C)NC(=O)[C@H](CC(N)=O)NC(=O)CNC(=O)[C@H](CC(=O)O)NC(=O)[C@H](CCC(N)=O)NC(=O)[C@H](C)NC(=O)[C@@H](N)Cc1ccccc1)C(=O)O", "note": "[Epitope M22] (H-FAQDGNAAI-OH; N-terminus and C-terminus assumed)", "values": [{"measurement": "IC50", "setting": "HLA-C0602", "value": "> 15", "unit": "µM"}, {"measurement": "IC50", "setting": "HLA-C0801", "value": "< 5", "unit": "µM"}, {"measurement": "IC50", "setting": "HLA-C0102", "value": "> 15", "unit": "µM"}, {"measurement": "IC50", "setting": "HLA-C0303", "value": "> 15", "unit": "µM"}, {"measurement": "IC50", "setting": "HLA-C0701", "value": "> 15", "unit": "µM"}, {"measurement": "IC50", "setting": "HLA-C0302", "value": "< 5", "unit": "µM"}, {"measurement": "IC50", "setting": "HLA-C0304", "value": "5 to 15", "unit": "µM"}]}, {"smiles": "C[C@H](NC(=O)[C@H](Cc1ccc(O)cc1)NC(=O)[C@H](C)NC(=O)[C@@H](N)Cc1ccccc1)C(=O)N[C@@H](CC(N)=O)C(=O)N[C@@H](CCCNC(=N)N)C(=O)N[C@@H](CC(N)=O)C(=O)N[C@@H](CCCNC(=N)N)C(=O)N[C@@H](Cc1ccccc1)C(=O)O", "note": "[Epitope M43] (H-FAYANRNRF-OH; N-terminus and C-terminus assumed)", "values": [{"measurement": "IC50", "setting": "HLA-C0602", "value": "5 to 15", "unit": "µM"}, {"measurement": "IC50", "setting": "HLA-C0102", "value": "> 15", "unit": "µM"}, {"measurement": "IC50", "setting": "HLA-C0702", "value": "5 to 15", "unit": "µM"}, {"measurement": "IC50", "setting": "HLA-C0701", "value": "< 5", "unit": "µM"}, {"measurement": "IC50", "setting": "HLA-C0401", "value": "> 15", "unit": "µM"}]}]}
